Drawing on PubChem BioAssay (NCI), this text covers GI50 and TGI for 8 molecules.

Some test systems named below: MCF7 breast; SR leukemia; BT-549 breast; SNB-19 CNS; 786-0 renal; HCT-15 colon; SF-295 CNS; SK-OV-3 ovarian; HOP-62 NSCLC; EKVX NSCLC.
Common to all, as to test: DTP human tumour cell line panel, 48 h

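These data come from cells grown in 96-well plates and exposed to compound for 48 hours at five concentrations. Abbreviation: GI50, concentration required for 50% inhibition of growth. TGI marks complete inhibition of growth.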

As usually defined, the GI50 is the concentration at which growth is held to half of that of the control. The TGI is the concentration giving total growth inhibition. Low values mean greater sensitivity of the cells, high ones lower sensitivity of the cells. As to `O=C(Nc1ccc(Cl)cc1)N1CCN(c2ccc3nncn3n2)CC1`, the GI50 with MCF7 breast is 35.3 µM; in the assay with SR leukemia it was 24.5 µM; in the assay on BT-549 breast, 57.4 µM; in the assay on SNB-19 CNS, more than 100 µM; in the assay with 786-0 renal, more than 100 µM; in the assay with HCT-15 colon it was 30.2 µM. For the same molecule, the GI50 in the assay with SF-295 CNS was 53.4 µM; in the assay with SK-OV-3 ovarian, more than 100 µM; with HOP-62 NSCLC it was more than 100 µM. Moreover, the concentration for total growth inhibition (TGI) in the assay on MCF7 breast, in the assay with SR leukemia, in the assay on BT-549 breast, with SNB-19 CNS, in the assay with 786-0 renal and in the assay on HCT-15 colon was more than 100 µM each time. Moreover, the TGI with SF-295 CNS, in the assay with SK-OV-3 ovarian and with HOP-62 NSCLC was more than 100 µM each time.

Take `CCOC(=O)c1ccc(NC(=O)c2cccc(NC3=C(Cl)C(=O)N(Cc4ccccc4)C3=O)c2)cc1`: the GI50 with MCF7 breast was 51.3 µM; in the assay on BT-549 breast it was more than 100 µM; in the assay with SNB-19 CNS, more than 100 µM; in the assay with EKVX NSCLC, more than 100 µM; in the assay with 786-0 renal it was more than 100 µM; in the assay on HCT-15 colon it was more than 100 µM. Moreover, the GI50 with SF-295 CNS, in the assay with SK-OV-3 ovarian and in the assay on HOP-62 NSCLC was more than 100 µM each time. The TGI with MCF7 breast, in the assay with BT-549 breast, in the assay with SNB-19 CNS, in the assay with EKVX NSCLC, with 786-0 renal and with HCT-15 colon was more than 100 µM each time. The TGI with SF-295 CNS, in the assay with SK-OV-3 ovarian and in the assay on HOP-62 NSCLC was more than 100 µM throughout.

Consider `COC(=O)[C@H](CCCCNC(=O)OCc1ccccc1)NC(=O)[C@@H](NC(=O)Nc1cc(C(F)(F)F)cc(C(F)(F)F)c1)C(C)C`, for which the GI50 in the assay on MCF7 breast, in the assay with SR leukemia, in the assay with BT-549 breast, with SNB-19 CNS, with 786-0 renal and with HCT-15 colon was more than 10 µM throughout. The GI50 with SF-295 CNS, with SK-OV-3 ovarian and in the assay on HOP-62 NSCLC was more than 10 µM throughout. The total growth inhibition concentration (TGI) in the assay with MCF7 breast, in the assay with SR leukemia, with BT-549 breast, in the assay on SNB-19 CNS, in the assay with 786-0 renal and with HCT-15 colon was more than 10 µM in each case. For the same molecule, the TGI with SF-295 CNS, with SK-OV-3 ovarian and with HOP-62 NSCLC was more than 10 µM throughout.

Turning to `Cc1cn2c(/C=C3\C(=O)N(C)c4ccc(Cl)cc43)c(C)nc2s1`, the GI50 was 7.01 µM in the assay on MCF7 breast; 0.226 µM in the assay with SR leukemia; 6.4 µM in the assay with BT-549 breast; 4.25 µM in the assay on SNB-19 CNS; 9.9 µM in the assay with EKVX NSCLC; 4.92 µM with 786-0 renal. The GI50 with HCT-15 colon was 4.03 µM; in the assay on SF-295 CNS, 3.63 µM; in the assay on HOP-62 NSCLC it was 5.6 µM. For the same molecule, the TGI in the assay with MCF7 breast is 55.5 µM; in the assay with SR leukemia, 1.52 µM; in the assay on BT-549 breast, more than 100 µM; with SNB-19 CNS, 92.9 µM; in the assay with EKVX NSCLC, more than 100 µM; in the assay on 786-0 renal it was 21.7 µM. Further, the TGI in the assay on HCT-15 colon was more than 100 µM; in the assay on SF-295 CNS it was more than 100 µM; in the assay on HOP-62 NSCLC, 72 µM.

As for `O=C(CC1Sc2ccccc2NC1=O)NNc1ccc(F)cc1` (centres undefined), the GI50 is 52 µM with MCF7 breast; 14.4 µM in the assay on SR leukemia; more than 100 µM in the assay with BT-549 breast; more than 100 µM in the assay with EKVX NSCLC; 29.5 µM with 786-0 renal; 6.76 µM in the assay with HCT-15 colon. Further, the GI50 with SF-295 CNS was 12.7 µM; with SK-OV-3 ovarian, more than 100 µM; with HOP-62 NSCLC, 66.3 µM. For the same molecule, the TGI with MCF7 breast, in the assay on SR leukemia, in the assay on BT-549 breast, in the assay on EKVX NSCLC, with 786-0 renal and in the assay with HCT-15 colon was more than 100 µM each time. Moreover, the TGI in the assay on SF-295 CNS, with SK-OV-3 ovarian and in the assay with HOP-62 NSCLC was more than 100 µM in each case.

With `CC(=N/NC(N)=S)/C(C)=N/NC(N)=S`, the total growth inhibition concentration (TGI) in the assay with MCF7 breast, in the assay with SR leukemia, in the assay on BT-549 breast, in the assay with SNB-19 CNS, in the assay on EKVX NSCLC and in the assay with 786-0 renal was more than 100 µM throughout. The TGI in the assay on HCT-15 colon and with HOP-62 NSCLC was more than 100 µM each time.

With `Nc1nc(N)c(-c2ccc(Cl)c(Cl)c2)c(CP(Cl)(Cl)(Cl)Br)n1`, the GI50 in the assay on MCF7 breast was 16.1 µM; in the assay with SR leukemia, 10.2 µM; in the assay on BT-549 breast, 40.7 µM; in the assay on SNB-19 CNS, 31.9 µM; in the assay with 786-0 renal it was 14.6 µM; with HCT-15 colon, 4.26 µM. Moreover, the figures for the GI50 in the assay on SF-295 CNS, in the assay on SK-OV-3 ovarian and in the assay on HOP-62 NSCLC were 6.7 µM, 86.7 µM and 72.7 µM, respectively. For the same molecule, the TGI in the assay with MCF7 breast, with SR leukemia, in the assay on BT-549 breast, with SNB-19 CNS, in the assay on 786-0 renal and in the assay on HCT-15 colon was more than 100 µM in each case. In addition, the TGI in the assay with SF-295 CNS, with SK-OV-3 ovarian and with HOP-62 NSCLC was more than 100 µM each time.

Turning to `N/C(=N/S(=O)(=O)c1cc(C(=O)Nc2ccc(F)cc2)c(Cl)cc1SCc1ccccc1)Nc1ccccc1O`, the GI50 with MCF7 breast was 2.79 µM; in the assay on BT-549 breast, 1.83 µM; with SNB-19 CNS, 4.29 µM; in the assay on EKVX NSCLC, 1.81 µM; with 786-0 renal it was 2.3 µM; with HCT-15 colon it was 37.1 µM. The GI50 in the assay on SF-295 CNS is 1.95 µM; in the assay on SK-OV-3 ovarian, 2.06 µM; with HOP-62 NSCLC, 2.04 µM. Also, the concentration for total growth inhibition (TGI) with MCF7 breast is 6.13 µM; with BT-549 breast, 4.74 µM; in the assay with SNB-19 CNS, more than 100 µM; in the assay with EKVX NSCLC, 4.46 µM; in the assay with 786-0 renal, 6.01 µM; with HCT-15 colon, more than 100 µM. The TGI with SF-295 CNS was found to be 3.66 µM; in the assay on SK-OV-3 ovarian, 4.2 µM; with HOP-62 NSCLC it was 4.52 µM.
